These results are taken from PubChem BioAssay (NCI).

Structures are written as SMILES. Values joined by “and” are separate entries in the source; they are usually repeats but may differ in a detail not shown here. Identical values can stand only once.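 Dose response: 5 concentrations. Exposure: 48 h. Format: 96-well plates. Endpoint: linear interpolation; highest concentration if not reached. At the GI50, growth is halved. TGI denotes the concentration required for complete inhibition of growth.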

Among the test systems are K-562 leukemia; SF-295 CNS; HCC-2998 colon; SNB-19 CNS; IGROV1 ovarian; DLD-1 colon; LXFL 529 NSCLC; OVCAR-3 ovarian; PC-3 prostate; HS 578T breast.
Experiment in all cases: NCI anticancer screen, dose series, 48 h

For `COc1nc2c(c(O)c(C)c(=O)n2OC2OCC(OC(C)=O)C(OC(C)=O)C2OC(C)=O)c(=O)n1C` (stereo not drawn), the TGI in the assay with K-562 leukemia, in the assay on SF-295 CNS, in the assay with HCC-2998 colon, in the assay with SNB-19 CNS, in the assay with IGROV1 ovarian and with DLD-1 colon was > 100 µM throughout. Further, the TGI in the assay with LXFL 529 NSCLC is > 100 µM.

`O=C(NC1C(=O)NNC1c1cccc([N+](=O)[O-])c1)c1ccccc1` (stereo not drawn): the TGI in the assay on OVCAR-3 ovarian, in the assay with SF-295 CNS, in the assay with HCC-2998 colon, with SNB-19 CNS, in the assay on IGROV1 ovarian and in the assay with DLD-1 colon was > 100 µM each time. The TGI in the assay with LXFL 529 NSCLC is > 100 µM.

`C[C@]12Cc3cn[nH]c3C(=O)C1CC[C@@H]1C2CC[C@@]2(C)C1CC[C@@H]2O` (stereo partly drawn): the TGI in the assay on K-562 leukemia, in the assay on OVCAR-3 ovarian, in the assay with SF-295 CNS, in the assay on SNB-19 CNS, in the assay with IGROV1 ovarian and with LXFL 529 NSCLC was > 100 µM throughout.

Consider `O=C1NC2=C(CCCCC/C2=N\O)C12CCCCCC2`, for which the TGI in the assay with K-562 leukemia, in the assay on OVCAR-3 ovarian, in the assay on SF-295 CNS, in the assay on SNB-19 CNS, in the assay with IGROV1 ovarian and in the assay on DLD-1 colon was > 100 µM throughout. The TGI with LXFL 529 NSCLC was > 100 µM.

Consider `CNC(=O)c1ncccc1Nc1nc(Nc2cc3c(cc2OC)CCCN3C(=O)CN(C)C)nc2[nH]ccc12`, for which the GI50 with K-562 leukemia is 1.88 µM; in the assay with OVCAR-3 ovarian, 0.986 µM; in the assay with PC-3 prostate it was 1.5 µM; in the assay with SF-295 CNS it was 1.82 µM; with HCC-2998 colon, 0.518 µM; in the assay on HS 578T breast it was 1.21 µM. The GI50 is 3.49 µM with SNB-19 CNS and 3.52 µM with IGROV1 ovarian. Besides, the TGI was 7.55 µM in the assay on K-562 leukemia; 3.39 µM in the assay on OVCAR-3 ovarian; 8.03 µM in the assay on PC-3 prostate; 5.94 µM in the assay on SF-295 CNS; 4.12 µM in the assay with HCC-2998 colon; 5.69 µM in the assay with HS 578T breast. The TGI amounted to 11.2 µM in the assay on SNB-19 CNS and 8.66 µM in the assay with IGROV1 ovarian.

`Cc1cc(O)c2c(c1)C(=O)C=CC2=O`: the GI50 with K-562 leukemia was 0.322 µM and 1.25 µM. In addition, the TGI with OVCAR-3 ovarian is 10 µM and 10.2 µM; in the assay on PC-3 prostate, 46.3 µM and 25.5 µM; in the assay with SF-295 CNS, 32.7 µM and 39 µM; in the assay with HCC-2998 colon, 25.4 µM and 30 µM; in the assay with HS 578T breast, 54.6 µM and 64.3 µM; in the assay with SNB-19 CNS, 46.7 µM and 31.2 µM. For the same compound, the TGI in the assay with IGROV1 ovarian is 27.4 µM and 24.1 µM.

`OC1(c2ccc(Cl)c(C(F)(F)F)c2)CCN(CCCC(c2ccc(F)cc2)c2ccc(F)cc2)CC1`: the GI50 was 0.781 µM with K-562 leukemia; 0.888 µM with OVCAR-3 ovarian; 0.857 µM in the assay with PC-3 prostate; 0.833 µM with SF-295 CNS; 0.762 µM in the assay with HCC-2998 colon; 0.857 µM in the assay on HS 578T breast. In addition, the GI50 in the assay with SNB-19 CNS is 1.13 µM; in the assay with IGROV1 ovarian, 0.975 µM. The TGI stood at 1.75 µM in the assay on K-562 leukemia; 1.63 µM in the assay with OVCAR-3 ovarian; 2.1 µM in the assay with PC-3 prostate; 1.63 µM with SF-295 CNS; 1.43 µM with HCC-2998 colon; 1.93 µM with HS 578T breast. The TGI in the assay with SNB-19 CNS was 3.86 µM; in the assay with IGROV1 ovarian, 2.05 µM.

For the compound `COc1cc2c(cc1Nc1nc(N3CCc4ccccc43)c3cc[nH]c3n1)N(C(=O)CN(C)C)CC2`, the GI50 is 0.478 µM in the assay on K-562 leukemia; 2.08 µM with OVCAR-3 ovarian; 2.24 µM in the assay on PC-3 prostate; 4.79 µM in the assay with SF-295 CNS; 3.13 µM in the assay with HCC-2998 colon; 4.52 µM with HS 578T breast. Also, the GI50 is 4.44 µM with SNB-19 CNS and 10.9 µM in the assay with IGROV1 ovarian. Besides, the TGI in the assay with K-562 leukemia is 1.2 µM; in the assay on OVCAR-3 ovarian, 4.98 µM; in the assay on PC-3 prostate, 6.43 µM; in the assay on SF-295 CNS it was 11.8 µM; in the assay on HCC-2998 colon, 7.33 µM; in the assay on HS 578T breast, 11.4 µM. For the same compound, the values for the TGI in the assay with SNB-19 CNS and with IGROV1 ovarian were 11.5 µM and 17.1 µM, respectively.

With `O=C1[C@@H]2C(c3c(Cl)cccc3Cl)=NO[C@@H]2C(=O)N1c1ccc(Cc2ccc(N3C(=O)[C@H]4C(c5c(Cl)cccc5Cl)=NO[C@H]4C3=O)cc2)cc1`, the TGI with K-562 leukemia, in the assay with OVCAR-3 ovarian, in the assay with SF-295 CNS, with HCC-2998 colon, with IGROV1 ovarian and in the assay with DLD-1 colon was > 100 µM each time. Further, the TGI in the assay on LXFL 529 NSCLC is > 100 µM.

In the case of `COc1ccc2c(c1)C(=O)c1c-2c(Nc2ccccc2OC)nc2ccccc12`, the GI50 with K-562 leukemia, in the assay with OVCAR-3 ovarian, in the assay on PC-3 prostate, in the assay with SF-295 CNS, in the assay with HCC-2998 colon and with HS 578T breast was > 100 µM in each case. Further, the GI50 in the assay on SNB-19 CNS and with IGROV1 ovarian was > 100 µM each time. The TGI with K-562 leukemia, in the assay on OVCAR-3 ovarian, in the assay on PC-3 prostate, in the assay on SF-295 CNS, in the assay on HCC-2998 colon and in the assay with HS 578T breast was > 100 µM each time. The TGI with SNB-19 CNS and with IGROV1 ovarian was > 100 µM throughout.

On to `Nc1nc2c(c3cnccc13)C(c1ccc(Cl)c(Cl)c1)Cc1cnccc1-2` (stereo not drawn), for which the GI50 is 0.452 µM in the assay with K-562 leukemia; 0.382 µM with OVCAR-3 ovarian; 0.544 µM in the assay on PC-3 prostate; 0.394 µM in the assay with SF-295 CNS; 1.65 µM in the assay on HCC-2998 colon; 0.818 µM with HS 578T breast. Further, the figures for the GI50 in the assay on SNB-19 CNS and in the assay with IGROV1 ovarian were 0.65 µM and 1.85 µM, respectively. Further, the TGI in the assay on K-562 leukemia came out at 32.8 µM; in the assay with OVCAR-3 ovarian, 5.86 µM; with PC-3 prostate, 12.8 µM; in the assay on SF-295 CNS, 4.76 µM; in the assay with HCC-2998 colon it was 7.37 µM; in the assay with HS 578T breast, 22 µM. Moreover, the TGI with SNB-19 CNS was found to be 13.5 µM; with IGROV1 ovarian, 17.8 µM.

Regarding `Cc1ccc2c(c1)CN1c3ccc(C)cc3CN2C1c1ccccc1O`, the TGI with K-562 leukemia, with OVCAR-3 ovarian, with SF-295 CNS, in the assay on IGROV1 ovarian, in the assay with DLD-1 colon and in the assay on LXFL 529 NSCLC was > 100 µM throughout.
